Laboratory results from the supplement of paper PMC10307832.

Legend:
Test in all cases: relative viability (nuclei count vs DMSO), 5 days (fraction); higher = more cells survive
[1] = compound: C1=CC=C(C(=C1)C2=CC=C(C=C2)C3=CSC4=C3C(=C(C(=O)N4)C#N)O)O + CCNC(=O)c1noc(-c2cc(C(C)C)c(O)cc2O)c1-c1ccc(CN2CCOCC2)cc1 [Luminespib] (partner 0.01 µM)
Summary of the method: (§1)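 The day after seeding in 1536-well plates, lung cancer cell lines were treated by pin tool with a single drug, or with a fixed anchor-drug dose together with five library-drug doses (not always all listed) in √10 steps. After 5 days, a combined fix-and-stain solution (final 0.05% Triton X-100, 1% formaldehyde, 1 ug/ml Hoechst) was added. Nuclei counted on 4× images gave relative viability as treated counts over vehicle counts, reported as the median of duplicate plates.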

[2] = compound: C1=CC=C(C(=C1)C2=CC=C(C=C2)C3=CSC4=C3C(=C(C(=O)N4)C#N)O)O + CS(=O)(=O)CCNCc1ccc(-c2ccc3ncnc(Nc4ccc(OCc5cccc(F)c5)c(Cl)c4)c3c2)o1 [Lapatinib] (partner 2 µM)
Summary of the method: as §1

[3] = compound: CC1=CN2C(=O)C=C(N=C2C(=C1)C(C)NC3=CC=CC=C3)N4CCOCC4 [TGX 221] + CC1(C)CCC(c2ccc(Cl)cc2)=C(CN2CCN(c3ccc(C(=O)NS(=O)(=O)c4ccc(N[C@H](CCN5CCOCC5)CSc5ccccc5)c(S(=O)(=O)C(F)(F)F)c4)cc3)CC2)C1 [Navitoclax] (partner 0.5 µM)
Summary of the method: as §1

[4] = compound: O=C(CCCCCCNC(=O)c1cnc(N(c2ccccc2)c2ccccc2)nc1)NO [Ricolinostat] + COc1cccc2cc(-c3nc([C@H]4CC[C@H](C(=O)O)CC4)n4ncnc(N)c34)[nH]c12 [OSI-027] (partner 0.5 µM)
Summary of the method: as §1

Cell Line	relative viability ([1]; first compound 0.08 µM)	relative viability ([1]; first compound 0.253 µM)	relative viability ([1]; first compound 0.8 µM)	relative viability ([1]; first compound 2.53 µM)	relative viability ([1]; first compound 8 µM)	relative viability ([2]; first compound 0.08 µM)	relative viability ([2]; first compound 0.253 µM)	relative viability ([2]; first compound 0.8 µM)	relative viability ([2]; first compound 2.53 µM)	relative viability ([2]; first compound 8 µM)	relative viability ([3]; first compound 0.08 µM)	relative viability ([3]; first compound 0.253 µM)	relative viability ([3]; first compound 0.8 µM)	relative viability ([3]; first compound 2.53 µM)	relative viability ([3]; first compound 8 µM)	relative viability ([4]; first compound 0.253 µM)	relative viability ([4]; first compound 0.8 µM)	relative viability ([4]; first compound 2.53 µM)	relative viability ([4]; first compound 0.08 µM)
NCI-H322M	0.792	0.808	0.881	0.911	0.758	0.621	0.616	0.569	0.563	0.589	1.13	1.19	1.14	0.911	1.33	0.598	0.532	0.51	
NCI-H460	0.0357	0.0366	0.0362	0.0279	0.036		1.09	0.868	1.24	0.747	1.04	1.02	1.24	1.19	1.07	0.637	0.622	0.596	0.507
NCI-H520	0.261	0.225	0.218	0.246	0.21	0.602	0.876	1.15	0.859	0.736	1.24	0.944	1.03	0.756	0.648	0.259	0.231	0.228	
NCI-H596	0.696	0.941	0.943	1.15	0.904	0.866	1.17	1.16	0.999	1.02	0.996	0.863	0.969	0.902	0.886	0.82	0.845	0.5	0.801
NCI-H647	0.183	0.0923	0.19	0.245	0.209	0.447	1.2	1.11	1.16	0.871	1.08	0.781	0.943	0.88	0.622	0.508	0.489	0.543	0.546
NCI-H727	0.451	0.356	0.43	0.487	0.341	0.834	0.844	0.927	0.589	0.757	0.383	0.317	0.491	0.332	0.365	0.671	0.551	0.657	0.389
NCI-H838	0.276	0.333	0.242	0.197	0.329	0.659	1.11	0.973	0.887	0.872	1.08	0.977	1.05	0.888	0.779	0.383	0.457	0.519	0.302
NCI-H1355	0.542	0.681	0.727	0.61	0.533	0.949	0.966	1.1	0.81	0.999	0.88	0.747	0.764	0.598	0.707	0.477	0.404	0.299	0.296
NCI-H1395	0.933	0.683	0.658	0.641	0.5		0.87	1.05	0.974	0.965	1.02	0.907	0.986	0.957	0.763	0.651	0.613	0.663	
NCI-H1437	1.01	1.34	1.17	1.17	0.902	0.72	0.794	0.772	0.891	0.527	1.05	1.07	1.11	1.07	0.893	0.864	0.774	0.502	0.729
NCI-H1650	0.195	0.197	0.175	0.208	0.2		0.872	0.811	0.72	0.54	1.23	1.14	1.27	1.04	0.456	0.586	0.459	0.361	0.471
NCI-H1651	0.77	0.818	0.971	0.974	0.546	0.697	0.799	0.78	0.821	0.683	0.977	0.964	0.948	0.734	0.733	0.651	0.603	0.618	0.607
NCI-H1666	0.942	1.05	0.949	1.01	1.01	0.667	0.826	0.577	0.427	0.59	0.935	0.759	0.749	0.844	0.927	0.884	0.845	0.691	0.716
NCI-H1734	0.16	0.245	0.196	0.214	0.208	1.09	1.05	1.16	1.01	0.887	0.809	0.747	0.784	0.698	0.765	0.673	0.632	0.617	0.473
NCI-H1755	0.401	0.302	0.336	0.349	0.447	0.938	1.11	0.875	1.11	1.1	0.948	0.949	0.891	0.606	0.444	0.791	0.717	0.62	0.538
NCI-H1793	0.19	0.21	0.42	0.225	0.166	0.583	0.765	0.825	0.701	0.598	0.405	0.328	0.286	0.283	0.176	0.252	0.284	0.221	
NCI-H1915	0.665	0.632		0.929	0.576	0.835	1.04	0.924	1.15	0.882	0.788	0.765	0.779	0.79	0.775	0.65	0.623	0.421	0.525
NCI-H1944	0.839	0.736	0.752	0.777	0.724	0.69	0.853	0.883	0.67	0.788	0.981	1.02	1	0.943	0.841	0.405	0.34	0.292	0.321
NCI-H1975	0.174	0.248	0.161	0.253	0.161	0.756	1.01	0.832	0.895	0.766	1.03	1.13	0.989	0.903	0.805	0.84	0.76	0.599	0.638
NCI-H1993	0.625	0.715	0.7	0.763	0.646	0.889	0.814	0.764	0.869	0.782	0.761	0.848	0.884	0.831	0.82	0.532	0.648	0.466	
NCI-H2009	0.962	1.02	1.11	1.03	1.02	1.04	0.933	0.795	0.886	0.724	1.13	1.16	1.17	1.02	0.927	0.565	0.553	0.567	0.447
NCI-H2023	0.59	0.752	0.767	0.956	0.643	0.925	0.94	0.579	0.729	0.88	0.987	0.965	0.988	0.925	0.758	0.446	0.343	0.377	
NCI-H2085	0.403	0.475	0.479	0.499	0.416	0.608	0.841	0.677	0.685	0.671	1.11	0.978	0.951	0.622	0.626	0.72	0.627	0.414	
NCI-H2087	0.165	0.162	0.222	0.172	0.204	1.05	1.11	1.01	1.19	1.04	0.989	0.898	1.06	0.945	0.952	0.603	0.545	0.45	
NCI-H2126	0.894	0.895	0.89	0.948	0.928	0.737	0.748	0.728	0.766	0.834	0.831	0.835	0.837	0.752	0.817	0.847	0.658	0.692	0.489
NCI-H2170	0.594	1.11	0.992	0.752	0.609	0.267	0.276	0.278	0.279	0.286	0.572	0.64	0.594	0.541	0.51	0.718	0.725	0.891	0.656
NCI-H2228	0.14	0.163	0.105	0.135	0.186	0.701	1.33	0.814	0.998	1.1	0.856	0.949	0.609	0.931	0.644	0.496	0.616	0.286	0.593
NCI-H2347	0.354	0.404	0.405	0.37	0.492	0.844	1.17	0.889	0.916	0.932	0.796	0.681	0.598	0.432	0.49	0.451	0.364	0.319	0.293
